# Target: DGKα (Homo sapiens (Human), UniProt P23743)
# Assay: Human DGKα kinase activity inhibition assay (ADP-Glo)
# Type: biochemical
# Details: recombinant full-length human DGKα, 55 μM ATP, 7 μM 1,2-dioleoyl-sn-glycerol, read-out: IC50 values of examples in in vitro human DGKa kinase activity inhibition assays
# How it was run: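 Activity was measured as ADP production, detected by luciferase luminescence after removal of unused ATP. The enzyme was baculovirus-expressed full-length human DGKα with a C-terminal FLAG tag. The substrate was 1,2-dioleoyl-sn-glycerol in detergent micelles, and compounds came from 100× DMSO solutions.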
# DGKα, sequence (P23743 other isoform, or with tags, fused parts or gaps): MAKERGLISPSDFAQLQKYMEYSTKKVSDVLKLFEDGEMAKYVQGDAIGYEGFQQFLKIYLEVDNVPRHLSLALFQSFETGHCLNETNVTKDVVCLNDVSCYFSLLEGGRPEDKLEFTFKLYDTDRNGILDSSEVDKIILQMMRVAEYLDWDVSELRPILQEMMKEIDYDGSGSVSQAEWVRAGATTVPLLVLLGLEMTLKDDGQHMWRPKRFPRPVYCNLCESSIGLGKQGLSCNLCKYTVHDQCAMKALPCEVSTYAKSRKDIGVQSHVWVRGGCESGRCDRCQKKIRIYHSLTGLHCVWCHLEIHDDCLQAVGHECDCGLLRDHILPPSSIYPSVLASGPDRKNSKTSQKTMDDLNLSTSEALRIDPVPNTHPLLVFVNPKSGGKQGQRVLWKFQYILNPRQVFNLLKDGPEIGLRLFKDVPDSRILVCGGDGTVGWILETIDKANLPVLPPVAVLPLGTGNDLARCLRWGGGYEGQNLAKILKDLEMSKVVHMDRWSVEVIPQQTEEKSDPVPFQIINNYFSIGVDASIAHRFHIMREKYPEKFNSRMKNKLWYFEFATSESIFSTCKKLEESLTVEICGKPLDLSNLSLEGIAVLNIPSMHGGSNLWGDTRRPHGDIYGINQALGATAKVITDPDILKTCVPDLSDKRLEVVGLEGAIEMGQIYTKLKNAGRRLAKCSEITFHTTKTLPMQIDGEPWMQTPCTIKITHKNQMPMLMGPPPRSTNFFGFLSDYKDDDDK
row,Structure (SMILES),IC50 [nM]
1,"Cn1c(=O)c(C#N)c(N2CCC(c3nc(-c4ccccc4)no3)CC2)c2cc(Br)ccc21 [Example 440, 6-bromo-1-methyl-2-oxo-4-[4-(3-phenyl-1,2,4-oxadiazol-5-yl)piperidin-1-yl]-1,2-dihydroquinoline-3-carbonitrile]",8.9
2,"Cn1c(=O)c(C#N)c(N2CCC(c3nnc(-c4ccccc4)o3)CC2)c2cc(Br)ccc21 [Example 441, 6-bromo-1-methyl-2-oxo-4-[4-(5-phenyl-1,3,4-oxadiazol-2-yl)piperidin-1-yl]-1,2-dihydroquinoline-3-carbonitrile]",11
3,"Cc1ccccc1-c1nnc(C2CCN(c3c(C#N)c(=O)n(C)c4ccc(Br)cc34)CC2)o1 [Example 442, 6-bromo-1-methyl-4-{4-[5-(2-methylphenyl)-1,3,4-oxadiazol-2-yl]piperidin-1-yl}-2-oxo-1,2-dihydroquinoline-3-carbonitrile]",15
4,"Cc1cccc(-c2nnc(C3CCN(c4c(C#N)c(=O)n(C)c5ccc(Br)cc45)CC3)o2)c1 [Example 443, 6-bromo-1-methyl-4-{4-[5-(3-methylphenyl)-1,3,4-oxadiazol-2-yl]piperidin-1-yl}-2-oxo-1,2-dihydroquinoline-3-carbonitrile]",9.1
5,"Cc1ccccc1-c1nnc(C2CCN(c3c(C#N)c(=O)n(C)c4cc(O)ccc34)CC2)o1 [Example 444, 7-hydroxy-1-methyl-4-{4-[5-(2-methylphenyl)-1,3,4-oxadiazol-2-yl]piperidin-1-yl}-2-oxo-1,2-dihydroquinoline-3-carbonitrile]",82
6,"Cc1ccccc1-c1nnc(C2CCN(c3c(C#N)c(=O)n(C)c4cc(O)c(Br)cc34)CC2)o1 [Example 445, 6-bromo-7-hydroxy-1-methyl-4-{4-[5-(2-methylphenyl)-1,3,4-oxadiazol-2-yl]piperidin-1-yl}-2-oxo-1,2-dihydroquinoline-3-carbonitrile]",44
7,"CNC(=O)c1c(N2CCC(c3nc4ccccc4o3)CC2)c2ccccc2n(C)c1=O [Example 447, 4-[4-(1,3-benzoxazol-2-yl)piperidin-1-yl]-N,1-dimethyl-2-oxo-1,2-dihydroquinoline-3-carboxamide]",63
8,"CNC(=O)c1c(N2CCC(c3nc4cc(C)ccc4o3)CC2)c2ccccc2n(C)c1=O [Example 448, N,1-dimethyl-4-[4-(5-methyl-1,3-benzoxazol-2-yl)piperidin-1-yl]-2-oxo-1,2-dihydroquinoline-3-carboxamide]",27
9,"CNC(=O)c1c(N2CCC(C)(c3nc4ccccc4o3)CC2)c2ccccc2n(C)c1=O [Example 449, 4-[4-(1,3-benzoxazol-2-yl)-4-methylpiperidin-1-yl]-N,1-dimethyl-2-oxo-1,2-dihydroquinoline-3-carboxamide]",13
10,"Cn1c(=O)c(C(N)=O)c(N2CCC(c3nc4cc(N5CCCC5=O)ccc4o3)CC2)c2ccccc21 [Example 450, 1-methyl-2-oxo-4-{4-[5-(2-oxopyrrolidin-1-yl)-1,3-benzoxazol-2-yl]piperidin-1-yl}-1,2-dihydroquinoline-3-carboxamide]",119
11,"COC1(c2cccc(Cl)c2)CCN(c2c(C(N)=O)c(=O)n(C)c3ccccc23)CC1 [Example 451, 4-[4-(3-chlorophenyl)-4-methoxypiperidin-1-yl]-1-methyl-2-oxo-1,2-dihydroquinoline-3-carboxamide]",163
12,"Cc1ccc2oc(C3(C)CCN(c4c(C(N)=O)c(=O)n(C)c5ccc(P(C)(C)=O)cc45)CC3)nc2c1 [Example 452, 6-(dimethylphosphoryl)-1-methyl-4-[4-methyl-4-(5-methyl-1,3-benzoxazol-2-yl)piperidin-1-yl]-2-oxo-1,2-dihydroquinoline-3-carboxamide]",2570
13,"Cc1ccc2oc(C3CCN(c4c(C(N)=O)c(=O)n(C)c5ccc(P(C)(C)=O)cc45)CC3)nc2c1 [Example 453, 6-(dimethylphosphoryl)-1-methyl-4-[4-(5-methyl-1,3-benzoxazol-2-yl)piperidin-1-yl]-2-oxo-1,2-dihydroquinoline-3-carboxamide]",598
14,"Cc1ccc2oc(C3CCN(c4c(C(N)=O)c(=O)n(C)c5ccc(S(C)(=O)=O)cc45)CC3)nc2c1 [Example 454, 6-(methanesulfonyl)-1-methyl-4-[4-(5-methyl-1,3-benzoxazol-2-yl)piperidin-1-yl]-2-oxo-1,2-dihydroquinoline-3-carboxamide]",373
15,"COC1(c2cc3ccccc3s2)CCN(c2c(C(N)=O)c(=O)n(C)c3ccccc23)CC1 [Example 455, 4-[4-(1-benzothiophen-2-yl)-4-methoxypiperidin-1-yl]-1-methyl-2-oxo-1,2-dihydroquinoline-3-carboxamide]",1.9
16,"Cn1c(=O)c(C(N)=O)c(N2CCC(O)(c3cc4ccccc4s3)CC2)c2ccccc21 [Example 456, 4-[4-(1-benzothiophen-2-yl)-4-hydroxypiperidin-1-yl]-1-methyl-2-oxo-1,2-dihydroquinoline-3-carboxamide]",41

row,Structure (SMILES),IC50 [nM]
1,"COc1ccc2cc(C3CCN(c4c(C(N)=O)c(=O)n(C)c5ccccc45)CC3)ccc2c1 [Example 457, 4-[4-(6-methoxynaphthalen-2-yl)piperidin-1-yl]-1-methyl-2-oxo-1,2-dihydroquinoline-3-carboxamide]",6.8
2,"Cc1ccccc1-c1noc(C2CCN(c3c(C(N)=O)c(=O)n(C)c4ccccc34)CC2)n1 [Example 458, 1-methyl-4-{4-[3-(2-methylphenyl)-1,2,4-oxadiazol-5-yl]piperidin-1-yl}-2-oxo-1,2-dihydroquinoline-3-carboxamide]",4.3
3,"COc1ccc(-c2noc(C3CCN(c4c(C(N)=O)c(=O)n(C)c5ccccc45)CC3)n2)cc1 [Example 459, 4-{4-[3-(4-methoxyphenyl)-1,2,4-oxadiazol-5-yl]piperidin-1-yl}-1-methyl-2-oxo-1,2-dihydroquinoline-3-carboxamide]",9.8
4,"Cc1cccc(-c2noc(C3CCN(c4c(C(N)=O)c(=O)n(C)c5ccccc45)CC3)n2)c1 [Example 460, 1-methyl-4-{4-[3-(3-methylphenyl)-1,2,4-oxadiazol-5-yl]piperidin-1-yl}-2-oxo-1,2-dihydroquinoline-3-carboxamide]",3.5
5,"Cc1ccccc1-c1nnc(C2CCN(c3c(C(N)=O)c(=O)n(C)c4ccccc34)CC2)o1 [Example 461, 1-methyl-4-{4-[5-(2-methylphenyl)-1,3,4-oxadiazol-2-yl]piperidin-1-yl}-2-oxo-1,2-dihydroquinoline-3-carboxamide]",77
6,"Cc1ccc(-c2nnc(C3CCN(c4c(C(N)=O)c(=O)n(C)c5ccccc45)CC3)o2)cc1 [Example 462, 1-methyl-4-{4-[5-(4-methylphenyl)-1,3,4-oxadiazol-2-yl]piperidin-1-yl}-2-oxo-1,2-dihydroquinoline-3-carboxamide]",121
7,"Cc1cccc(-c2nnc(C3CCN(c4c(C(N)=O)c(=O)n(C)c5ccccc45)CC3)o2)c1 [Example 463, 1-methyl-4-{4-[5-(3-methylphenyl)-1,3,4-oxadiazol-2-yl]piperidin-1-yl}-2-oxo-1,2-dihydroquinoline-3-carboxamide]",113
8,"Cn1c(=O)c(C(N)=O)c(N2CCC(c3nnc(-c4cccc(Cl)c4)o3)CC2)c2ccccc21 [Example 464, 4-{4-[5-(3-chlorophenyl)-1,3,4-oxadiazol-2-yl]piperidin-1-yl}-1-methyl-2-oxo-1,2-dihydroquinoline-3-carboxamide]",123
9,"Cn1c(=O)c(C(N)=O)c(N2CCC(C)(c3nnc(-c4cccc(Cl)c4)o3)CC2)c2ccccc21 [Example 465, 4-{4-[5-(3-chlorophenyl)-1,3,4-oxadiazol-2-yl]-4-methylpiperidin-1-yl}-1-methyl-2-oxo-1,2-dihydroquinoline-3-carboxamide]",175
10,"CC1Cc2cc(C3CCN(c4c(C(N)=O)c(=O)n(C)c5ccccc45)CC3)ccc2O1 (centres unmarked) [Example 466, 1-methyl-4-{4-[2-methyl-2,3-dihydro-1-benzofuran-5-yl]piperidin-1-yl}-2-oxo-1 2-dihydroquinoline-3-carboxamide]",0.5
11,"Cn1c(=O)c(C(N)=O)c(N2CCC(c3ccc4c(c3)CC(O)C4)CC2)c2ccccc21 (centres unmarked) [Example 467, 4-[4-(2-hydroxy-2,3-dihydro-1H-inden-5-yl)piperidin-1-yl]-1-methyl-2-oxo-1,2-dihydroquinoline-3-carboxamide]",3.9
12,"Cn1c(=O)c(C(N)=O)c(N2CCC(c3ccc4c(c3)C3(CCC3)C(=O)N4)CC2)c2ccccc21 [Example 469, 1-methyl-2-oxo-4-[4-(2′-oxo-1′,2′-dihydrospiro[cyclobutane-1,3′-indol]-5′-yl)piperidin-1-yl]-1,2-dihydroquinoline-3-carboxamide]",33
13,"Cc1cc(C2(C)CCN(c3c(C(N)=O)c(=O)n(C)c4ccccc34)CC2)nc2ccccc12 [Example 470, 1-methyl-4-[4-methyl-4-(4-methylquinolin-2-yl)piperidin-1-yl]-2-oxo-1,2-dihydroquinoline-3-carboxamide]",13
14,"Cn1ccc2c(F)cc(C3CCN(c4c(C(N)=O)c(=O)n(C)c5ccccc45)CC3)cc21 [Example 471, 4-[4-(4-fluoro-1-methyl-1H-indol-6-yl)piperidin-1-yl]-1-methyl-2-oxo-1,2-dihydroquinoline-3-carboxamide]",3.9
15,"Cc1cccc(-n2ccc(C3CCN(c4c(C(N)=O)c(=O)n(C)c5ccccc45)CC3)n2)c1 [Example 472, 1-methyl-4-{4-[1-(3-methylphenyl)-1H-pyrazol-3-yl]piperidin-1-yl}-2-oxo-1,2-dihydroquinoline-3-carboxamide]",6.7
16,"Cc1ccccc1-n1ccc(C2CCN(c3c(C(N)=O)c(=O)n(C)c4ccccc34)CC2)n1 [Example 473, 1-methyl-4-{4-[1-(2-methylphenyl)-1H-pyrazol-3-yl]piperidin-1-yl}-2-oxo-1,2-dihydroquinoline-3-carboxamide]",23

# From patent US11998539B2, “Substituted aminoquinolones as DGKalpha inhibitors for immune activation” (Bayer Aktiengesellschaft, priority 2019, dated 2024)
